Laboratory results: US11224223B2, “Feeding deterrence of pests such as Hemiptera, Lepidoptera and Coleoptera” (BEDOUKIAN RESEARCH, INC., priority 2012, dated 2022)

Legend:
Type in all cases: in vivo
granary weevils = test: Granary weevil test on treated wheat kernels; conditions: 5% in isopropyl alcohol, 3 week period
Protocol: Ten replicates of 30 kernels of wheat were immersed into the test compound and allowed to dry for 24 hours. The grains were then transferred to a test container, and 10 granary weevils were released. Test containers were secured and left for a 3 week period. At the end of this time, the wheat grains were examined for developing larvae and damage by larvae. […] Ten additional replicates treated with isopropyl alcohol were prepared to serve as controls.

saw tooth grain beetles = test: Repellency of test compounds on grain beetles, treated corn kernels; conditions: 5% in isopropyl alcohol, 3 week period
Protocol: Ten replicates of 30 kernels of corn are immersed into the test compound and allowed to dry for 24 hours. The kernels are then transferred to a test container, and 10 saw tooth grain beetles are released. Test containers are secured and left for a 3 week period. At the end of this time, the […] grains are examined for feeding damage. […] Ten additional replicates treated with isopropyl alcohol are prepared to serve as controls.

Codling Moth larvae = test: Repellency as feeding deterrence and mortality in Codling Moth larvae on treated media
Protocol: Another test was designed to measure the repellency as feeding deterrence in Codling Moth larvae. The treatment was applied to the surface of a proprietary laboratory media in a tray with wells for each compound. The media was allowed to dry for 30-60 minutes so that larvae were not exposed to it as a liquid. One first instar codling moth larva was then placed on the treated media. The cover film was placed on the tray to prevent escapes. Ten additional replicates treated with a 57% ethanol solution were prepared to serve as controls. […] After the 24 hour reading, the larvae were extracted from the media to record any mortality.
Mortality observations were also made for the above protocol. The control was the 57% ethanol:43% water solution.

Aphis gossypii = test: Melon aphid repellency on leaf choice assays; conditions: 3% compound in a Triton X:Water solution; n=100; control 50/50
Excerpt: Melon Aphid Repellency on Leaf Choice Assays Aphis gossypii are maintained on squash plants. Individual aphids (n=100) are given the choice between leaves with and without repellent treatments. A separate group of aphids are given a choice between untreated vs. untreated leaves as a control. The number of aphids choosing each leaf is counted both choice tests. The number of aphids choosing each treatment is compared to the control to determine the repellent effect.

psyllids = test: Psyllid repellency on potato choice assays; conditions: 3% compound; potato plants; 100 psyllids per cage; control 50/50
Excerpt: Psyllid Repellency on Potato Choice Assays
(§1) Potato plants are sprayed with either a 3% solution of repellent chemical in a 5%:95% ETOH:Water or only 5%:95% ETOH:Water as a control. Two plants are placed in a screen cage, either a treatment vs control tree or a control vs control tree, 100 psyllids are released into each cage. The number of psyllids choosing each leaf is counted for both choice tests. The number of psyllids choosing each treatment is compared to the control to determine if there is a repellent effect.

sharpshooters = test: Leafhopper repellency on citrus choice assays; conditions: 3% compound; citrus seedlings; 100 sharpshooters per cage; control 50/50
Excerpt: as §1, with “Leafhopper Repellency on Citrus Choice Assays Citrus seedlings” for “Potato plants”, “seedlings” for “plants”, “tree.” for “tree,”, “sharpshooters” for “psyllids”

[1] = test system: Euschistus heros-Neotropical Brown Stink Bugs; test: Stink bug feeding damage on soybean pods; conditions: 3% compound, soybean plants at R6 stage, 48 hours
Protocol: To compare the feeding/resting preference of stink bug adults for different plant parts, 10 pots with soybean plants at the R6 (pod-filling) stage of development are used. 5 pots of soybeans are sprayed with 3% of treatment in a 2% Triton X:water solution and 5 pots of soybean are treated with 2% Triton X:water solution as controls. Thirty stink bugs are placed individually in each cage and allowed to feed for 48 hours. Insects are removed and plant parts are collected for visual analysis of damage. Feeding damage on the pods is counted for both treatments. The selective antifeeding rate (%) formula is [(C−T)/(C+T)]×100, and the non-selective antifeeding rate (%) formula is [(C−T)/C)]×100, where C and T are the numbers of feeding damages on the control and treated plant pods, respectively.

[2] = test system: Leptinotarsa decemlineata-Colorado Potatoe Beetles; test: Choice feeding assay on potato leaf disks; conditions: 3% compound, larvae, 24 h
Protocol: For choice feeding assays, 3% alcohol solutions of the tested compounds are prepared. Disks (4.0 cm in diameter) are cut from potato leaves and are dipped in the test solutions or alcohol alone as a control. After the complete evaporation of the solvent, the disks are offered to 10 larvae. Control and treated disks are placed at alternate corners in Petri dishes (150 by 20 mm) lined with moistened filter paper (choice test). All dishes are placed in an incubator. Four replicates and 40 larva are used for each chemical. In each replicate, the insects are allowed to feed ad libitum for 24 h at 24 C under a 16:8 (L:D) photoperiod. After 24 h, the remaining uneaten area of each potato leaf disk is measured using a scanner and software. The selective antifeeding rate (%) formula is [(C−T)/(C+T)]×100, and the non-selective antifeeding rate (%) formula is [(C−T)/C)]×100, where C and T are the areas consumed by the control and treated leaf disks, respectively.

Popillia japonica = test: Japanese beetle feeding damage on basil; conditions: 3% compound; basil leaf disks; adult beetle; 24 h
Protocol: Japanese Beetle Feeding Damage on Basil For choice feeding assays, 3% alcohol solutions of the tested compounds are prepared. Disks (4.0 cm in diameter) are cut from basil leaves and are dipped in the test solutions or alcohol alone as a control. After the complete evaporation of the solvent, the disks are offered to 1 adult beetle. All dishes are placed in an incubator. Four replicates are used for each chemical. After 24 h, the remaining uneaten area of each basil leaf disk is measured using a scanner and software. The selective antifeeding rate (%) formula is [(C−T)/(C+T)]×100, and the non-selective antifeeding rate (%) formula is [(C−T)/C)]×100, where C and T are the areas consumed by the control and treated leaf disks, respectively.

Dermestid spp. = test: Dermestid beetle feeding damage on silk fabric; conditions: 3% compound; undyed silk disks; late instar larvae; 1 week
Protocol: Dermestid Beetle Feeding Damage on Silk Fabric
For feeding assays, 3% alcohol solutions of the tested compounds are prepared. Disks (4.0 cm in diameter) of undyed silk fabric are dipped in the test solutions or alcohol alone as a control. After the complete evaporation of the solvent, the disks are offered to 10 late instar larvae. All dishes are placed in an incubator. Four replicates are used for each chemical. After 1 week, the remaining uneaten area of each silk disk is measured using a scanner and software. The selective antifeeding rate (%) formula is [(C−T)/(C+T)]×100, and the non-selective antifeeding rate (%) formula is [(C−T)/C)]×100, where C and T are the areas consumed by the control and treated silk disks, respectively.

Tineola spp. = test: Clothes moth feeding damage on silk fabric, choice test; conditions: 3% compound; silk disks; late instar larvae; 24 hours; control 50/50
Protocol: For feeding assays, 3% alcohol solutions of the tested compounds are prepared. Disks (2.0 cm in diameter) of undyed silk fabric are dipped in the test solutions or alcohol alone as a control. After the complete evaporation of the solvent, the disks are presented in a choice test to 10 late instar Tineola spp. larvae. All dishes are placed in an incubator in the dark. Four replicates are used for each chemical. After 24 hours, the number of individuals choosing to feed on each disk are counted.

Plodia interpunctella = test: Feeding repellent assay for Indian meal moth larva on treated rice; conditions: 10% compound in a 5% Ethanol:95% water solution, third instar larvae, 1 week
Protocol: (§2) Feeding Repellent Assay for Indian Meal Moth Larva One gram of rice is weighed and treated with 2% by weight of each test chemical or ethanol as a control for each treatment and replicate. The grains are allowed to dry and then weighed again. Treated or control rice grains are placed in a petri dish. Third instar larvae are starved for 8 h and gently introduced into the center of each compartment. 20 larva are screened per treatment, and each experiment is repeated three times. The weight of rice grains is measured again after 1 week. The selective antifeeding rate (%) formula is [(C−T)/(C+T)]×100, and the non-selective antifeeding rate (%) formula is [(C−T)/C)]×100, where C and T are the areas consumed by the control and treated leaf disks, respectively.

Sitostroga cerealella = test: Feeding repellent assay for Angoumois larva on treated rice; conditions: 10% compound in a 5% Ethanol:95% water solution, third instar larvae, 1 week
Protocol: Feeding Repellent Assay for Angoumois Larva
as §2, with “One” for “Feeding Repellent Assay for Indian Meal Moth Larva One”

[3] = test system: brown marmorated stink bugs (BMSB); test: Repellency as feeding deterrence in brown marmorated stink bugs, treated filter paper with green bean; conditions: compound at 3.5% in a 57% Ethanol:43% water solution; control 38%
Protocol: A test was designed to measure the repellency as feeding deterrence in brown marmorated stink bugs (BMSB). Five replicates of 5 BMSBs were introduced into test arenas, containing one 60 mm×15 mm Petri dish with treated filter papers in which a food source (green bean) was attached, at the start of the test. The small Petri dishes containing the treated filter paper and food source were covered with a fitted Petri dish lid in between observation times, and were removed 5 minutes before each observation time to prevent stink bugs from feeding until sated. The distribution of the BMSBs was observed and documented hourly for 5 hours.

Structure (SMILES): CC1=CC(O)CC(CC(C)C)C1 (centres unmarked) [3-Methyl-5-Isobutyl-2-Cyclohexenol]
- Increased Mortality over Control Mortality (granary weevils): 93%
- Increased Repellency vs. Control Repellency (granary weevils): 86%
- Increased Repellency vs. Control Repellency (saw tooth grain beetles): 85%

Structure (SMILES): CCCC1CC(=O)C=C(C)C1 (centres unmarked) [3-Methyl-5-Propyl-2-Cyclohexenone]
- Repellency at 24 hours (Codling Moth larvae; compound at 3.5% in a 57% Ethanol:43% water solution, first instar larva, control 8%): 21%
- Increased Mortality over Control Mortality at 24 hours (Codling Moth larvae; in vivo): 1%
- Increased Mortality over Control Mortality (granary weevils): 57%
- Increased Repellency vs. Control Repellency (granary weevils): 66%
- Increased Repellency vs. Control Repellency (saw tooth grain beetles): 60%

Structure (SMILES): CCCCCCCCCC1CCC(=O)O1 (centres unmarked) [Gamma Tridecalactone]
- Increased Repellency vs. Control Repellency (granary weevils): 40%
- Number of Aphids Choosing each Treatment: Treated (Aphis gossypii): 20
- Number of Aphids Choosing each Treatment: Untreated (Aphis gossypii): 80
- Number of Psyllids Choosing each Treatment: Treated (psyllids): 20
- Number of Psyllids Choosing each Treatment: Untreated (psyllids): 80
- Number of Psyllids Choosing each Treatment: Treated (sharpshooters): 20
- Number of Psyllids Choosing each Treatment: Untreated (sharpshooters): 80
- % Antifeedent Activity [1]: 80%
- % Repellency [2]: 40%
- % Repellency (Popillia japonica): 40%
- % Repellency (Dermestid spp.): 40%
- Increased Repellency vs. Control Repellency (saw tooth grain beetles): 40%
- Individuals choosing to feed on each disk: Treated (Tineola spp.): 10
- Individuals choosing to feed on each disk: Untreated (Tineola spp.): 90
- % Antifeedent Activity (Plodia interpunctella): 70%
- % Antifeedent Activity (Sitostroga cerealella): 70%

Structure (SMILES): CCCCCC1C(=O)CCC1CC(=O)OC (centres unmarked) [Methyl Dihydrojasmonate]
- Repellency averaged over 5 hours [3]: 90%
- Number of Aphids Choosing each Treatment: Treated (Aphis gossypii): 30
- Number of Aphids Choosing each Treatment: Untreated (Aphis gossypii): 70
- Number of Psyllids Choosing each Treatment: Treated (psyllids): 30
- Number of Psyllids Choosing each Treatment: Untreated (psyllids): 70
- Number of Psyllids Choosing each Treatment: Treated (sharpshooters): 30
- Number of Psyllids Choosing each Treatment: Untreated (sharpshooters): 70
- % Antifeedent Activity [1]: 90%
- % Repellency [2]: 15%
- % Repellency (Popillia japonica): 15%
- % Repellency (Dermestid spp.): 15%
- Individuals choosing to feed on each disk: Treated (Tineola spp.): 20
- Individuals choosing to feed on each disk: Untreated (Tineola spp.): 80
- % Antifeedent Activity (Plodia interpunctella): 60%
- % Antifeedent Activity (Sitostroga cerealella): 60%

Structure (SMILES): CCCCCC1C(O)CCC1CC(=O)OC (centres unmarked) [Methyl dihydrojasmolate]
- Number of Aphids Choosing each Treatment: Treated (Aphis gossypii): 30
- Number of Aphids Choosing each Treatment: Untreated (Aphis gossypii): 70
- Number of Psyllids Choosing each Treatment: Treated (psyllids): 30
- Number of Psyllids Choosing each Treatment: Untreated (psyllids): 70
- Number of Psyllids Choosing each Treatment: Treated (sharpshooters): 30
- Number of Psyllids Choosing each Treatment: Untreated (sharpshooters): 70
- % Antifeedent Activity [1]: 90%
- % Repellency [2]: 15%
- % Repellency (Popillia japonica): 15%
- % Repellency (Dermestid spp.): 15%
- Individuals choosing to feed on each disk: Treated (Tineola spp.): 20
- Individuals choosing to feed on each disk: Untreated (Tineola spp.): 80
- % Antifeedent Activity (Plodia interpunctella): 60%
- % Antifeedent Activity (Sitostroga cerealella): 60%
